Measured values taken from publication PMC3145970, “Specific CLK Inhibitors from a Novel Chemotype for Regulation of Alternative Splicing” (Chemistry & Biology, 2011).
Like-named read-outs stand apart in the source and are kept apart here.

Key:
CDK2 = CDK2 (Homo sapiens, UniProt P24941); test: Thermal stability shift assay; format: binding; conditions: read-out: Tm shift CDK2
Description: (§1) Thermal denaturation experiments were carried out in an Mx3005p real-time PCR machine (Agilent) using a protein concentration of 2 μM and an inhibitor concentration of 10 μM. Samples were buffered in 10 mM HEPES (pH 7.5), 500 mM NaCl and a 1:1000 dilution of SyproOrange (Invitrogen).

Erk1 = molecular target: T1, Erk1 (Homo sapiens, UniProt P27361); test: Thermal stability shift assay; format: binding; conditions: read-out: Tm shift Erk1
T1 construct: purchased in-house (SGC Oxford thermal shift panel)
Description: as §1

CLK4 = molecular target: T2, CLK4 (Homo sapiens, UniProt Q9HAZ1); test: Thermal stability shift assay; format: binding; conditions: inhibitor 10 μM; read-out: Tm shift CLK4
T2 construct: purchased in-house (SGC Oxford thermal shift panel)
Description: as §1

DYRK1A = molecular target: T3, DYRK1A (Homo sapiens, UniProt Q13627); test: Thermal stability shift assay; format: binding; conditions: inhibitor 10 μM; read-out: Tm shift DYRK1A
T3 construct: purchased in-house (SGC Oxford thermal shift panel)
Description: as §1

CLK2 = CLK2 (Homo sapiens, UniProt P49760); test: Thermal stability shift assay; format: binding; conditions: inhibitor 10 μM; read-out: Tm shift CLK2
Description: as §1

CLK3 = molecular target: T4, CLK3 (Homo sapiens, UniProt P49761); test: Thermal stability shift assay; format: binding; conditions: inhibitor 10 μM; read-out: Tm shift CLK3
T4 construct: purchased in-house (SGC Oxford thermal shift panel)
Description: as §1

CK1g3 = CK1g3 (Homo sapiens, UniProt Q9Y6M4); test: Thermal stability shift assay; format: binding; conditions: read-out: Tm shift CK1g3
Description: as §1

CK1e = CK1e (Homo sapiens, UniProt P49674); test: Thermal stability shift assay; format: binding; conditions: inhibitor 10 μM; read-out: Tm shift CK1e
Description: as §1

DYRK2 = molecular target: T5, DYRK2 (Homo sapiens, UniProt Q92630); test: Thermal stability shift assay; format: binding; conditions: inhibitor 10 μM; read-out: Tm shift DYRK2
T5 construct: purchased in-house (SGC Oxford thermal shift panel)
T5 sequence (Q92630 1-601): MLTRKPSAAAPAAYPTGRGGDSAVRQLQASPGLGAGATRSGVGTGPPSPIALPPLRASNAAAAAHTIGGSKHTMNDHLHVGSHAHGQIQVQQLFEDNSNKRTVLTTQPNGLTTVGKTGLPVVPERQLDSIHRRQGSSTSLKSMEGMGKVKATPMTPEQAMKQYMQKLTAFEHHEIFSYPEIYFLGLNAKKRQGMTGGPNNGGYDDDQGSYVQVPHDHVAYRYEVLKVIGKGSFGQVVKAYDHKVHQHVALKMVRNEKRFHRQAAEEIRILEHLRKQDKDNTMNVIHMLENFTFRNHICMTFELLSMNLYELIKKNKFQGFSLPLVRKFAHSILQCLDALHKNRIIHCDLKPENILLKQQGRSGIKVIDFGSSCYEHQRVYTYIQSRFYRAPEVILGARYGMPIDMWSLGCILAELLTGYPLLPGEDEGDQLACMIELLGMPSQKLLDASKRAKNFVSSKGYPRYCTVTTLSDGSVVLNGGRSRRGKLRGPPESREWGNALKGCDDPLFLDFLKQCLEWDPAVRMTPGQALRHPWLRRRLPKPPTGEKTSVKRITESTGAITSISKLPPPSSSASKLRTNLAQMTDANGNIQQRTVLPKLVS
Description: as §1

PIM1 = PIM1 (Homo sapiens, UniProt P11309); test: Thermal stability shift assay; format: binding; conditions: read-out: Tm shift PIM1
Description: as §1

CLK1 = molecular target: T6, CLK1 (Homo sapiens, UniProt P49759); test: Thermal stability shift assay; format: binding; conditions: inhibitor 10 μM; read-out: Tm shift CLK1
T6 construct: the kinase domains of human CLK1 (residues: 148–484 (C terminus)); hexahistidine tag (TEV-cleavable) (cleaved yes); made in house; host or cells: E. coli BL21(DE3)
Description: as §1

[1] = system: panel of 106 kinases / 129 human protein kinases; test: Thermal shift assay, kinase panel; format: binding; conditions: inhibitor 10 μM
Description: as §1, with “(Invitrogen). The assay and data evaluation were carried out as described ([Bullock et al., 2005])” for “(Invitrogen).”

OSR1 = molecular target: T7, OSR1 (Homo sapiens, UniProt O95747); test: Thermal stability shift assay; format: binding; conditions: read-out: Tm shift OSR1
T7 construct: purchased in-house (SGC Oxford thermal shift panel)
How it was run: (§2)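 2 μM protein + 10 μM inhibitor; 10 mM HEPES pH 7.5, 500 mM NaCl, SyproOrange 1:1000; melt in qPCR cycler, dye fluorescence monitored.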

RSK2~C = molecular target: T8, RSK2~C (Homo sapiens, UniProt P51812); test: Thermal stability shift assay; format: binding; conditions: read-out: Tm shift RSK2~C
T8 construct: RSK2~C 2.7 12.3 2.0 1.0 1.3 -0.2 0.4
How it was run: as §2

CDKL1 = CDKL1 (Homo sapiens, UniProt Q00532); test: Thermal stability shift assay; format: binding; conditions: read-out: Tm shift CDKL1
How it was run: as §2

ZAK = ZAK (Homo sapiens, UniProt Q9NYL2); test: Thermal stability shift assay; format: binding; conditions: read-out: Tm shift ZAK
How it was run: as §2

[2] = system: panel of 71 protein kinases; test: Caliper mobility shift enzymatic kinase selectivity screening; format: biochemical; conditions: tested 0.1 nM to 10 μM; ATP at KM
Description: Enzymatic kinase selectivity screening was carried out using the Caliper mobility shift assay which is based on the difference in capillary electrophoresis mobility of a fluorescent tagged peptide as a result of the addition of a phosphate moiety by the studied kinase. The kinase reactions were started by addition of 4.5 μl substrate mix consisting of ATP and peptide substrate in assay buffer (50 mM HEPES [pH 7.5], 0.02% bovine serum albumin, 1 mM DTT, 0.02% Tween 20, 0.01 mM Na3VO4, 10 mM beta-glycerophosphate) and 4.5 μl enzyme solution in assay buffer. The peptide concentration was 2 μM. Concentrations for the enzyme, as well as for MgCl2 and MnCl2 were adjusted specifically to the requirements of the individual enzyme. ATP concentrations were adjusted to the KM values of the specific enzyme. After incubation for 60 min at 30°C the kinase reactions were stopped by addition of 16 μl stop solution (100 mM HEPES [pH 7.5], 5% DMSO, 0.1% coating reagent [Caliper Lifescience] 10 mM EDTA [pH 8.0], 0.015% BRIJ35). Stopped kinase reactions were analyzed in a LC3000 reader (Caliper Lifescience). Compounds were tested from 0.1 nM to 10 μM in eight steps.

[3] = system: phosphorylated SR proteins in HMEC-1 cells; test: SR protein phosphorylation, western blotting; format: cell-based, human; conditions: TNF-α-stimulated HMEC-1, increasing inhibitor concentration
Description: Western blot analysis of samples from cell lysates of inhibited, stimulated, and unstimulated HMEC-1 cells were performed as previously described ([Szotowski et al., 2005]). For detection of phosphorylated SR proteins, monoclonal antibody mAb1H4 (Invitrogen GmbH, Karlsruhe, Germany) was used.

T7 sequence (O95747 whole entry): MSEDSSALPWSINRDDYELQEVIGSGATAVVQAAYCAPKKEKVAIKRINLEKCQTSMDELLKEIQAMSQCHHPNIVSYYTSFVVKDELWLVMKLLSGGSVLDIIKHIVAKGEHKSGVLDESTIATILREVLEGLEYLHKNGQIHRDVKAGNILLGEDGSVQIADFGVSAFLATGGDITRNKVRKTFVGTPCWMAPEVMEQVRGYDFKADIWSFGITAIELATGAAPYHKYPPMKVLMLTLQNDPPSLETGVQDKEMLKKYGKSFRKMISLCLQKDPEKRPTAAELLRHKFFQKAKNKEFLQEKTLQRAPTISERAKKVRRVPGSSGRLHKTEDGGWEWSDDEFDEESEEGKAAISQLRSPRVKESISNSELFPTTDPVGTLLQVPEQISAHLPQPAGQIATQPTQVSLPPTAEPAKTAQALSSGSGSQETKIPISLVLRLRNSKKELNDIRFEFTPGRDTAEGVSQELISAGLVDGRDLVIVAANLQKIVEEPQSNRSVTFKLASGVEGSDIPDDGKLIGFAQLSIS
CLK2, sequence (P49760 whole entry): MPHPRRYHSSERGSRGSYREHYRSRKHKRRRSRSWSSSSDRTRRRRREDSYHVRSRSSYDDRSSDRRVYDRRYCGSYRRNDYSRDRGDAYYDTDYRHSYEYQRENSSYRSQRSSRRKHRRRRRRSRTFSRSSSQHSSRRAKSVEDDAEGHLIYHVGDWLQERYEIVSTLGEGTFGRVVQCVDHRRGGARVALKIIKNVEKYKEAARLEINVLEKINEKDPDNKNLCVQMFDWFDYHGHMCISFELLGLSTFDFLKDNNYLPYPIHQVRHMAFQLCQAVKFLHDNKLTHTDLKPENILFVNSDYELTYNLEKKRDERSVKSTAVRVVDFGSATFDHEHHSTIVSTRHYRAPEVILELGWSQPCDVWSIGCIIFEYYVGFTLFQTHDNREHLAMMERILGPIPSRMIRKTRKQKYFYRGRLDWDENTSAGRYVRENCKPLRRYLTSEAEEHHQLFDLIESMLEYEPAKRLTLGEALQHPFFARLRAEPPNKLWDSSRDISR
T2 sequence (Q9HAZ1 whole entry): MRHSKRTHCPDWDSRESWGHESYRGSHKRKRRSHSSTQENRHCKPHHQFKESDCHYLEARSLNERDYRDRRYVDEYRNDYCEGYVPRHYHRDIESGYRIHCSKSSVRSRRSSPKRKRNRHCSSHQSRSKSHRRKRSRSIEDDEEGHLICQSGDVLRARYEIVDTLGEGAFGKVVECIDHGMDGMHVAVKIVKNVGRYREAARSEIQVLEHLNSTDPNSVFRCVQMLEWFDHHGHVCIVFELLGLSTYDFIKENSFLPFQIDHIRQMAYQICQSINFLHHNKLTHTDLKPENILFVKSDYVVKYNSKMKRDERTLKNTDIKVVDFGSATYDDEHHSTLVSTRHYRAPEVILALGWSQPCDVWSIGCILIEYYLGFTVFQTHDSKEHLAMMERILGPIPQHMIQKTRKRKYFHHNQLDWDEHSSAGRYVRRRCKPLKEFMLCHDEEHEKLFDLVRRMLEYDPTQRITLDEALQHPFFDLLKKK
T6 sequence (P49759 148-484): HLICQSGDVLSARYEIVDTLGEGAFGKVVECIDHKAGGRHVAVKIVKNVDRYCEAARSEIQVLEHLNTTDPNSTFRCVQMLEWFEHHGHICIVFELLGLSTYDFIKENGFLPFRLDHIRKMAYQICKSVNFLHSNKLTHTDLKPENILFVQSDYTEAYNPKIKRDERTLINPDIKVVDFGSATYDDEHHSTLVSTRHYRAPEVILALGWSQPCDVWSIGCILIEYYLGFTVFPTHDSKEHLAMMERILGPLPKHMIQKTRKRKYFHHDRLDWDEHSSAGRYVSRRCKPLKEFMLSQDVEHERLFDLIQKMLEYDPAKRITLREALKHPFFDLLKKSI
T8 sequence (P51812 422-679 limits assumed): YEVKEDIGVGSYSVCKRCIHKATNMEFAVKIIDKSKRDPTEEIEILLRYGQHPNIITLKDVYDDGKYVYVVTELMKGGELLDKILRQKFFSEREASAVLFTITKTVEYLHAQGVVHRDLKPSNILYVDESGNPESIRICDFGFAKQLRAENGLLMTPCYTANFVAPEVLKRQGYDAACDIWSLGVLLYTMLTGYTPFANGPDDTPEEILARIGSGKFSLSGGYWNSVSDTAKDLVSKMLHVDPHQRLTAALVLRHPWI
CDKL1, sequence (Q00532 whole entry): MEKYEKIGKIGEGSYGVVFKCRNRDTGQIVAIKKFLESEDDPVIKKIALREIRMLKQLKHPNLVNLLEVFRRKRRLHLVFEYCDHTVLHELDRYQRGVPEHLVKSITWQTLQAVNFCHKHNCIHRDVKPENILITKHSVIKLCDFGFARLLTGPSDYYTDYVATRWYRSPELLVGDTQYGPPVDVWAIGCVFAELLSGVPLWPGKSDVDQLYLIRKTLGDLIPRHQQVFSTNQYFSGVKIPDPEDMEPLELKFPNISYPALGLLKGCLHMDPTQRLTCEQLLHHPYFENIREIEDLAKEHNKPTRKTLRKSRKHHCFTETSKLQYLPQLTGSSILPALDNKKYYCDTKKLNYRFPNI
T4 sequence (P49761 whole entry): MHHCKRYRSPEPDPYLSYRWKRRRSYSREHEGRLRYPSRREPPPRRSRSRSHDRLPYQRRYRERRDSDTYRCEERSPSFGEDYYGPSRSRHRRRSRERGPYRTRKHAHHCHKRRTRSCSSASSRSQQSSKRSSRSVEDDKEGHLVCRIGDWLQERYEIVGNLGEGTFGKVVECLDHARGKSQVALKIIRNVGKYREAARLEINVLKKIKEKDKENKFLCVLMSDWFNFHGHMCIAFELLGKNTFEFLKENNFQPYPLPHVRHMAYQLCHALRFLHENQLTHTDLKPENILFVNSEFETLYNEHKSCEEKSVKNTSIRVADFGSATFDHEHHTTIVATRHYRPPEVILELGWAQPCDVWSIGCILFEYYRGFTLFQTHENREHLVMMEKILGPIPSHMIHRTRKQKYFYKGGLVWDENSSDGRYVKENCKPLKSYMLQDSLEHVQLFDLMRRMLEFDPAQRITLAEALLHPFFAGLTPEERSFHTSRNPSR
ZAK, sequence (Q9NYL2 whole entry): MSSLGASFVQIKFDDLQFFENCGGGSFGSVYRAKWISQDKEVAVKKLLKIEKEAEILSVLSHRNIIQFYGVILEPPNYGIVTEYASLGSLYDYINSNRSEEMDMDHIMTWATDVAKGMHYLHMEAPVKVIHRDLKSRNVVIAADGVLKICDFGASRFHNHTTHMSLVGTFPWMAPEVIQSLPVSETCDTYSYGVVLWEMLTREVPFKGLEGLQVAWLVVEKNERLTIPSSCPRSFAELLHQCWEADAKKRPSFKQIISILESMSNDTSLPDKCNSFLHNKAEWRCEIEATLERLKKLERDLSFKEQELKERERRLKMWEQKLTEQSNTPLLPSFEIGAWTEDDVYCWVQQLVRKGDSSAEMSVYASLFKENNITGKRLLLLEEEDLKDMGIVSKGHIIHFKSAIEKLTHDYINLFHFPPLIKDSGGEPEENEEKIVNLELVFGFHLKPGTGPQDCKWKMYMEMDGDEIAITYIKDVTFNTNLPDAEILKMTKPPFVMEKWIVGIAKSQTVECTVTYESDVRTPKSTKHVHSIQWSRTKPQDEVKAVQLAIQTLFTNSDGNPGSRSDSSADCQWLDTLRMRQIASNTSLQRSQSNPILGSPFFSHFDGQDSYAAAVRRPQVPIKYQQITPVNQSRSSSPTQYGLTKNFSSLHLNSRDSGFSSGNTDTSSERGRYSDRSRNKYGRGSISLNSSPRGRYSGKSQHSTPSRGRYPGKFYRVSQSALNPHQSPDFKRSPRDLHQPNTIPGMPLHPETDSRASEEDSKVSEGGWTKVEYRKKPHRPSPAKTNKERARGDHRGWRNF
T1 sequence (P27361 whole entry): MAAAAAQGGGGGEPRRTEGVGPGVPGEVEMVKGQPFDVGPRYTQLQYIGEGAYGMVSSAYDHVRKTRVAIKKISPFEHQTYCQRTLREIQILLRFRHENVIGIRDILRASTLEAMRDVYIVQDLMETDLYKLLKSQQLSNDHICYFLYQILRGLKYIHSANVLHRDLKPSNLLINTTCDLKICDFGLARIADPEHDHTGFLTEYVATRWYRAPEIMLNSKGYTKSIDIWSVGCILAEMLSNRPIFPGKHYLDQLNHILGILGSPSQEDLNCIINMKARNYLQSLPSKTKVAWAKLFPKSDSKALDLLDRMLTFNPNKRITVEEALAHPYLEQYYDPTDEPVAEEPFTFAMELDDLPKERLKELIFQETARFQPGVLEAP
CK1e, sequence (P49674 whole entry): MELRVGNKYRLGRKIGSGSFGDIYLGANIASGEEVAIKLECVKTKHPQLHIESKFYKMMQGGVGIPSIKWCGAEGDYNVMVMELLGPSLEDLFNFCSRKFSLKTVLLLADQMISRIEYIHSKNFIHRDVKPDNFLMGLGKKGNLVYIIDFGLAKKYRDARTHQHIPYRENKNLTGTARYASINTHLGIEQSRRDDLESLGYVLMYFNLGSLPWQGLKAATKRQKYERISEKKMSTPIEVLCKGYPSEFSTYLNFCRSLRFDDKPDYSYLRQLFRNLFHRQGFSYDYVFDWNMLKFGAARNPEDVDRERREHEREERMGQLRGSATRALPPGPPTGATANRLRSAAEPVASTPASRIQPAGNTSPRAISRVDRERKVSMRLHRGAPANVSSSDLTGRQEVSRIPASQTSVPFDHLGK
PIM1, sequence (P11309 whole entry): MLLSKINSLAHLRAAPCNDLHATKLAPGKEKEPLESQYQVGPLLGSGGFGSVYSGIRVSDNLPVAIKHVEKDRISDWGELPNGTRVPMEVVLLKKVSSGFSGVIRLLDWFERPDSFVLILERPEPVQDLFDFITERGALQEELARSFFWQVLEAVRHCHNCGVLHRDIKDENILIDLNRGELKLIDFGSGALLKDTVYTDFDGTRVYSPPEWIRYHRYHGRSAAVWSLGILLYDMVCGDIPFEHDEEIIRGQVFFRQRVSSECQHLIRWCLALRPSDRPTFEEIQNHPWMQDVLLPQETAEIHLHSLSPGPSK

| Compound | ΔTm at 10 µM (CDK2; inhibitor 10 μM) | ΔTm at 10 µM (Erk1; inhibitor 10 μM) | ΔTm at 10 µM (CLK4) | ΔTm at 10 µM (DYRK1A) | ΔTm at 10 µM (CLK2) | ΔTm at 10 µM (CLK3) | ΔTm at 10 µM (CK1g3; inhibitor 10 μM) | ΔTm at 10 µM (CK1e) | ΔTm at 10 µM (DYRK2) | ΔTm at 10 µM (PIM1; inhibitor 10 μM) | ΔTm at 10 µM (CLK1) | Interaction in thermal shift screen, panel of 106 kinases [1] | ΔTm at 10 µM (OSR1; inhibitor 10 μM) | ΔTm at 10 µM (RSK2~C; inhibitor 10 μM) | ΔTm at 10 µM (CDKL1; inhibitor 10 μM) | ΔTm at 10 µM (ZAK; inhibitor 10 μM) | ΔTm at 10 µM (CDK2) | ΔTm at 10 µM (Erk1) | ΔTm at 10 µM (CK1g3) | ΔTm at 10 µM (PIM1) | further results |
| --- | --- | --- | --- | --- | --- | --- | --- | --- | --- | --- | --- | --- | --- | --- | --- | --- | --- | --- | --- | --- | --- |
| CCOC(=O)c1c(C(C#N)=CN(C)C)c2ccc(Cl)c(Cl)c2n1C (mixture of isomers) [compound 2, (E/Z)-Ethyl 6,7-Dichloro-3-[1-Cyano-2-(Dimethylamino)Vinyl]-1-Methyl-1H-Indole-2-Carboxylate] | -0.1 °C | 0.1 °C | 4.1 °C | 0.6 °C | 3 °C | 1.7 °C | 0.5 °C | 0.3 °C | 0.7 °C | 2.5 °C | 5.6 °C | showed only interaction with CLK family members | 0 °C | -0.2 °C | 0.6 °C | -0.4 °C | – | – | – | – | – |
| NC1=NC(=O)/C(=C2\CCNC(=O)c3[nH]c(Br)cc32)N1 [Hymenialdisine, hymenialdisine, reference compound] | 1.5 °C | – | 7 °C | 4.4 °C | 4.4 °C | 7.2 °C | 3.5 °C | 4.8 °C | 0.8 °C | 0.6 °C | 7.8 °C | – | 0.5 °C | 2.7 °C | 0.6 °C | 1.7 °C | – | – | – | – | – |
| CCOC(=O)c1c(C(C#N)=CN)c2ccc(Cl)c(Cl)c2n1C (mixture of isomers) [KH-CB20, (E/Z)-Ethyl 3-(2-Amino-1-Cyanovinyl)-6,7-Dichloro-1-Methyl-1H-Indole-2-Carboxylate] | – | – | – | – | – | – | – | – | – | – | – | – | – | – | – | – | 0.2 °C | 0.1 °C | 0.3 °C | 3 °C | ΔTm at 10 µM (OSR1): 0.3 °C; ΔTm at 10 µM (RSK2~C): 1 °C; ΔTm at 10 µM (CDKL1): 0.2 °C; ΔTm at 10 µM (ZAK): -0.1 °C |
| CCOC(=O)c1c(/C(C#N)=C\N)c2ccc(Cl)c(Cl)c2n1C [KH-CB19, (E)-Ethyl 3-(2-Amino-1-Cyanovinyl)-6,7-Dichloro-1-Methyl-1H-Indole-2-Carboxylate] | – | – | – | – | – | – | – | – | – | – | – | – | – | – | – | – | 0.2 °C | -0.3 °C | 0.1 °C | 2.9 °C | Inhibition of panel of 71 protein kinases [2]: No additional kinases from the panel were inhibited; Dose response of SRp75 and SRp55 phosphorylation [3]: significantly reduced at increasing concentration of the inhibitor; ΔTm at 10 µM (OSR1): 0.3 °C; ΔTm at 10 µM (RSK2~C): 2 °C; ΔTm at 10 µM (CDKL1): 0 °C; ΔTm at 10 µM (ZAK): -0.3 °C |
| Cn1c2c(Cl)c(Cl)ccc2c2c(C#N)c[nH]c(=O)c21 [compound 3, 7,8-Dichloro-9-Methyl-1-Oxo-2,9-Dihydro-1H-Pyrido[3,4-b]Indole-4-Carbonitrile] | 0.4 °C | -0.5 °C | 9.6 °C | 5.1 °C | 6.3 °C | 7.9 °C | 0 °C | 0.9 °C | 2.1 °C | 3.4 °C | 10.9 °C | showed only interaction with CLK family members | 0.3 °C | 1.3 °C | 0.2 °C | -0.2 °C | – | – | – | – | – |
